Source: publication PMC9736374, “Design, Synthesis and Antimicrobial Properties of New Tetracyclic Quinobenzothiazine Derivatives” (International Journal of Molecular Sciences, 2022)
pIC50: −log10 of the molar value.

Columns and labels:
[1] = system: MRSA 63718; parameters: method as in PMID 25692135; conditions: cited from earlier work
[2] = system: S. aureus ATCC 29213 respiratory activity; experiment: MTT assay of bacterial respiration; type: cell-based, Staphylococcus aureus
[3] = Lipophilicity by RP-TLC; type: physicochemical; conditions: Tris buffer pH 7.4/acetone, read-out: logPTLC
Procedure: The lipophilicity parameters were determined experimentally using reverse phase thin-layer chromatography (RP-TLC). Chromatograms were prepared on RP-18F254s plates (1.05559.0001, Merck, Germany) precoated with nonpolar silicone oil. Plates were developed in glass chromatography chambers previously saturated with vapor of mobile phase. The mobile phase was composed of 0.2M Tris buffer (pH = 7.4) and acetone in different concentrations, i.e., 50%, 60%, 70%, 80 and 90%. The chromatograms were visualised in UV light (λ = 254 nm). Determination of the RF coefficient was carried out twice for all compounds; in all cases, acetone concentrations used. The final value of RF is the mean of the two measurements. The obtained RF coefficient was used to calculate the value of the RM parameter according to the equation: RM = log [(1/RF) − 1]. By extrapolating RM values to zero acetone concentration, a relative RM0 lipophilicity parameter was obtained, according to the equation: RM = RM0 + bC, where b is slope and C is concentration of acetone in mobile phase. Based on RM0 and the calibration curve, the values of logPTLC for compounds 6a–l were determined. The calibration curve was calculated using the relationship between RM0 of the standard molecules (acetanilide, p-kresol, p-bromoacetophenone, benzophenone, anthracene) and the corresponding logP parameters specified by the extraction method, respectively. RM0 parameters of the standard molecules and quinobenzothiazine derivatives 6a–l were determined in the same empirical conditions.

[4] = system: methicillin-resistant S. aureus 63718 (MRSA3); experiment: MIC, microtitration broth method; type: cell-based; conditions: Staphylococcus aureus; MRSA3 = 63718; 24 h, 37 °C
[5] = system: methicillin-resistant S. aureus 63718 (MRSA3); experiment: MBC, agar aliquot subculture method; type: cell-based; conditions: Staphylococcus aureus; MRSA3 = 63718
[6] = system: Staphylococcus aureus ATCC 29213; experiment: MBC, agar aliquot subculture method; type: cell-based; conditions: ATCC29213; SA = Staphylococcus aureus ATCC 29213
[7] = system: vancomycin-resistant E. faecalis VRE 368 (VRE2); experiment: MBC, agar aliquot subculture method; type: cell-based, Enterococcus faecalis; conditions: VRE2 = VRE 368
[8] = system: methicillin-resistant S. aureus SA 630 (MRSA2); experiment: MIC, microtitration broth method; type: cell-based; conditions: Staphylococcus aureus; MRSA2 = SA 630; 24 h, 37 °C
[9] = system: vancomycin-resistant E. faecalis VRE 725B (VRE3); experiment: MIC, microtitration broth method; type: cell-based, Enterococcus faecalis; conditions: VRE3 = VRE 725B; 24 h, 37 °C
[10] = system: methicillin-resistant S. aureus SA 3202 (MRSA1); experiment: MBC, agar aliquot subculture method; type: cell-based; conditions: Staphylococcus aureus; MRSA1 = SA 3202
[11] = system: methicillin-resistant S. aureus SA 630 (MRSA2); experiment: MBC, agar aliquot subculture method; type: cell-based; conditions: Staphylococcus aureus; MRSA2 = SA 630
[12] = system: vancomycin-resistant E. faecalis VRE 342B (VRE1); experiment: MBC, agar aliquot subculture method; type: cell-based, Enterococcus faecalis; conditions: VRE1 = VRE 342B
[13] = system: vancomycin-resistant E. faecalis VRE 368 (VRE2); experiment: MIC, microtitration broth method; type: cell-based, Enterococcus faecalis; conditions: VRE2 = VRE 368; 24 h, 37 °C
[14] = system: Enterococcus faecalis ATCC 29212; experiment: MBC, agar aliquot subculture method; type: cell-based; conditions: ATCC29212; EF = Enterococcus faecalis
[15] = system: vancomycin-resistant E. faecalis VRE 725B (VRE3); experiment: MBC, agar aliquot subculture method; type: cell-based, Enterococcus faecalis; conditions: VRE3 = VRE 725B
[16] = system: M. smegmatis ATCC 700084; experiment: In vitro antimycobacterial MIC, broth dilution micro-method; type: cell-based, Mycobacterium smegmatis; conditions: Mycolicibacterium smegmatis, ATCC700084, 72 h; MS = M. smegmatis ATCC 700084; 3 days, 37 °C
[17] = system: Enterococcus faecalis ATCC 29212; experiment: MIC, microtitration broth method; type: cell-based; conditions: ATCC29212; EF = Enterococcus faecalis; 24 h, 37 °C
[18] = system: Staphylococcus aureus ATCC 29213; experiment: MIC, microtitration broth method; type: cell-based; conditions: ATCC29213; SA = Staphylococcus aureus ATCC 29213; 24 h, 37 °C
[19] = system: methicillin-resistant S. aureus SA 3202 (MRSA1); experiment: MIC, microtitration broth method; type: cell-based; conditions: Staphylococcus aureus; MRSA1 = SA 3202; 24 h, 37 °C
[20] = system: normal human dermal fibroblasts (NHDF); experiment: In vitro cell viability, WST-1 assay; type: cell-based; conditions: 72 h
Procedure: Compounds were evaluated for their antiproliferative activity using NHDF (normal human dermal fibroblasts, ATCC, Manassas, VA, USA). The cultured cells were kept at 37 °C and 5% CO2. The cells were seeded (1 × 10^4 cells/well/100 μL DMEM supplemented with 10% FCS and streptomycin/penicillin) into 96-well plates (Corning Inc., Corning, NY, USA). Cells were counted using a hemocytometer (Burker chamber) and phase contrast Olympus IX50 microscope equipped with Sony SSC-DC58 AP camera and Olympus DP10 digital camera. The cell viability of the compounds was determined using the Cell Proliferation Reagent WST-1 assay (Roche Molecular Biochemicals, Mannheim, Germany). The examined cells were exposed to the tested compounds (1 mg/mL DMSO stock) for 72 h at various concentrations (0.1–100 μg/mL). The control was included in order to eliminate the DMSO effect at the concentration used. Cell cultures were incubated with WST-1 (10 μL) for 1 h. The absorbance of the samples was measured against a background control at 450 nm using a microplate reader with a reference wavelength at 600 nm. The obtained results are expressed as means of at least two independent experiments performed in triplicate.

[21] = system: vancomycin-resistant E. faecalis VRE 342B (VRE1); experiment: MIC, microtitration broth method; type: cell-based, Enterococcus faecalis; conditions: VRE1 = VRE 342B; 24 h, 37 °C
[22] = system: Mycobacterium marinum CAMP 5644; experiment: In vitro antimycobacterial MIC, broth dilution micro-method; type: cell-based; conditions: CAMP5644, 504 h; MM = Mycobacterium marinum CAMP 5644; 21 days, 28 °C
[23] = system: S. aureus; experiment: Crystal violet uptake (membrane permeability); type: cell-based, Staphylococcus aureus; conditions: 4× MIC, 1 h; compared to growth control and 1% Tween 20
Procedure: Phenothiazines are also known for their ability to interact with and damage the cell wall, which has fatal consequences for the microorganism. Therefore, the bacterial suspensions were treated by compounds 6a, 6e, 6g, 6j and 6k (4× MIC) for 1 h. The uptake of crystal violet was expressed as a percentage compared to the original crystal violet solution.

[24] = S. aureus ATCC 29213, MTT, 24 h

CN[C@H](CC(C)C)C(=O)N[C@H]1C(=O)N[C@@H](CC(N)=O)C(=O)N[C@H]2C(=O)N[C@H]3C(=O)N[C@H](C(=O)N[C@H](C(=O)O)c4cc(O)cc(O)c4-c4cc3ccc4O)[C@H](O)c3ccc(c(Cl)c3)Oc3cc2cc(c3O[C@@H]2O[C@H](CO)[C@@H](O)[C@H](O)[C@H]2O[C@H]2C[C@](C)(N)[C@H](O)[C@H](C)O2)Oc2ccc(cc2Cl)[C@H]1O [vancomycin]
MIC of vancomycin [1]: 2 µg/mL

C#CCOc1ccc2c(c1)Sc1c[n+](C)c3ccccc3c1N2 [Compound 6g, 9-propargyloxy-5-methyl-12H-quino[3,4-b][1,4]benzothiazinium chloride]
Conc.: corresponding multiple of MBC with at least 70% inhibition of respiratory activity [2, 24]: 2× MIC (2× MBC)
Conc.: lowest multiple of MIC with at least 70% inhibition of respiratory activity [2, 24]: 2× MIC (2× MBC)
Decrease in viability < 70% at MIC value (MTT) ([2]; S. aureus ATCC 29213, at MIC): did not show a decrease in viability < 70%
S. aureus Respiration Inhibition ([2]; at the concentration given): 96.8%
chromatographic logP [3]: 2.11
MIC [4]: 45.1 µM
MBC [5]: 45.1 µM
MBC [6]: 45.1 µM
MBC [7]: 90.1 µM
MIC [8]: 45.1 µM
MIC [9]: 90.1 µM
MBC [10]: 45.1 µM
MBC [11]: 45.1 µM
MBC [12]: 90.1 µM
MIC [13]: 90.1 µM
MBC [14]: 90.1 µM
MBC [15]: 90.1 µM
MIC [16]: 22.5 µM
MIC [17]: 90.1 µM
MIC [18]: 45.1 µM
MIC [19]: 45.1 µM
pIC50 [20]: < 4.00
MIC [21]: 90.1 µM
MIC [22]: 11.3 µM
Effect on plasma membrane permeability (uptake of crystal violet) [23]: did not affect plasma membrane permeability
